Laboratory results taken from patent publication US9982005B2, “Macrolides and methods of their preparation and use” (President and Fellows of Harvard College, priority 2013, dated 2018).
Values after ≈ are worked out from the molar mass of the structure shown. Read-outs that look alike come from different tables or passages of the source.

Legend:
Format in all cases: cell-based
[1] = system: SA101 S. aureus ATCC29213; assay: broth dilution MIC, S. aureus SA101
Description: (§1) We have collected MIC data for a total of 50 novel macrolides that this platform has produced against over 21 unique strains of B. subtilis, E. coli, S. aureus, S. pneumoniae, and H. influenzae, including several multidrug-resistant strains, with a special focus on macrolide resistant mechanisms (vide supra). Azithromycin was included as a control macrolide. CLSI standard procedures for broth dilution MIC determination were used. […] These genotypes can be constitutive or inducible. The finding that C4-epi (unnatural) isomers of the “azaketolide” macrolide class have enhanced activities relative to C4 natural isomers is very exciting.

[2] = system: EC107 E. coli ATCC25922; assay: broth dilution MIC, E. coli EC107
Description: as §1

[3] = system: EC878 E. coli tolC; assay: broth dilution MIC, E. coli EC878
Description: as §1

[4] = system: EC882 E. coli imp; assay: broth dilution MIC, E. coli EC882
Description: as §1

[5] = system: BS1723 B. subtilis BS168 WT wild type; assay: broth dilution MIC, B. subtilis BS1723; settings: BS1723 B. subtilis BS168 WT wild type
Description: as §1

[6] = system: BS1725 B. subtilis ermC; assay: broth dilution MIC, B. subtilis BS1725
Description: as §1

[7] = Staphylococcus aureus, ATCC29213, SA101 S. aureus ATCC29213, read-out: MIC
[8] = Escherichia coli, read-out: MIC
[9] = Bacillus subtilis, read-out: MIC
[10] = Bacillus subtilis, BS1725 B. subtilis ermC (+ery)
[11] = Bacillus subtilis, BS1725 B. subtilis ermC (−ery)

Compound | MIC [1, 7] [µg/mL] | MIC [2, 8] [µg/mL] | MIC ([3]; Escherichia coli) [µg/mL] | MIC ([4]; Escherichia coli) [µg/mL] | MIC [5, 9] [µg/mL] | MIC [6, 10] [µg/mL] | MIC [6, 11] [µg/mL] | MIC ([1]; SA101 S. aureus ATCC29213) [µg/mL] | MIC [2] [µg/mL] | MIC [3] [µg/mL] | MIC [4] [µg/mL] | MIC [5] [µg/mL] | MIC ([6]; BS1725 B. subtilis ermC (+ery)) [µg/mL] | MIC ([6]; BS1725 B. subtilis ermC (−ery)) [µg/mL]
CC[C@H]1OC(=O)[C@H](C)C(=O)C[C@@H](O[C@@H]2OC(C)CC(N(C)C)C2O)[C@@](C)(OC)C[C@@H](C)CN[C@H](C)[C@H]2N(CCCCn3cc(-c4ccccn4)nn3)C(=O)O[C@]12C (stereo partly shown) [FSM-30517] | > 32 | > 32 | > 32 | > 32 | > 32 | > 32 | > 32 | – | – | – | – | – | – | –
CC[C@H]1OC(=O)[C@](C)(F)C(=O)C[C@@H](O[C@@H]2OC(C)CC(N(C)C)C2O)[C@](C)(OC)C[C@@H](C)CN[C@H](C)[C@H]2N(CCCCn3cc(-c4cccnn4)nn3)C(=O)O[C@]12C (stereo partly shown) [FSM-10667] | > 32 | > 32 | 16 (≈ 19.5 µM) | 4 (≈ 4.88 µM) | > 32 | > 32 | > 32 | – | – | – | – | – | – | –
CC[C@H]1OC(=O)[C@H](C)C(=O)C[C@@H](O[C@@H]2OC(C)CC(N(C)C)C2O)[C@@](C)(OC)C[C@@H](C)CN(C(C)=O)[C@H](C)[C@H]2N(CCCCn3cc(-c4nccs4)nn3)C(=O)O[C@]12C (stereo partly shown) [FSM-30503] | > 32 | > 32 | > 32 | > 32 | > 32 | > 32 | > 32 | – | – | – | – | – | – | –
CC[C@H]1OC(=O)[C@H](C)C(=O)C[C@@H](O[C@@H]2OC(C)CC(N(C)C)C2O)[C@](C)(OC)C[C@@H](C)CN[C@H](C)[C@H]2N(CCCCn3cc(-c4nc5ccccc5s4)nn3)C(=O)O[C@]12C (stereo partly shown) [FSM-10788] | > 32 | > 32 | 1 (≈ 1.17 µM) | 0.0625 (≈ 0.073 µM) | > 32 | > 32 | > 32 | – | – | – | – | – | – | –
CC[C@H]1OC(=O)[C@H](C)C(=O)C[C@@H](O[C@@H]2OC(C)CC(N(C)C)C2O)[C@](C)(OC)C[C@@H](C)CN[C@H](C)[C@H]2N(CCCCn3cc(-c4nccs4)nn3)C(=O)O[C@]12C (stereo partly shown) [FSM-10787] | > 32 | 32 (≈ 39.7 µM) | 2 (≈ 2.48 µM) | 0.125 (≈ 0.155 µM) | > 32 | > 32 | > 32 | – | – | – | – | – | – | –
spiramycin [reference compound] | – | – | – | – | – | – | – | 8 | >32 | 16 | 1 | 2 | 16 | 2
CC[C@H]1OC(=O)[C@](C)(F)C(=O)C[C@@H](O[C@@H]2OC(C)CC(N(C)C)C2O)[C@](C)(OC)C[C@@H](C)CN[C@H](C)[C@H]2N(CCCCn3cc(-c4cccc(N)c4)nn3)C(=O)O[C@]12C (stereo partly shown) [FSM-10661] | > 32 | > 32 | 16 (≈ 19.2 µM) | 2 (≈ 2.4 µM) | > 32 | > 32 | > 32 | – | – | – | – | – | – | –
CC[C@H]1OC(=O)[C@](C)(F)C(=O)C[C@@H](O[C@@H]2OC(C)CC(N(C)C)C2O)[C@](C)(OC)C[C@@H](C)CN[C@H](C)[C@H]2N(CCCCn3cc(-c4nccs4)nn3)C(=O)O[C@]12C (stereo partly shown) [FSM-10666] | > 32 | > 32 | 16 (≈ 19.4 µM) | 4 (≈ 4.85 µM) | > 32 | > 32 | > 32 | – | – | – | – | – | – | –
CC[C@H]1OC(=O)[C@H](C)C(=O)C[C@@H](O[C@@H]2OC(C)CC(N(C)C)C2O)[C@](C)(OC)C[C@@H](C)CN(C(C)=O)[C@H](C)[C@H]2N(CCCCn3cc(-c4nc5ccccc5s4)nn3)C(=O)O[C@]12C (stereo partly shown) [FSM-10791] | > 32 | > 32 | 2 (≈ 2.23 µM) | 0.5 (≈ 0.557 µM) | > 32 | > 32 | > 32 | – | – | – | – | – | – | –
CC[C@H]1OC(=O)[C@](C)(F)C(=O)C[C@@H](O[C@@H]2OC(C)CC(N(C)C)C2O)[C@](C)(OC)C[C@@H](C)CN[C@H](C)[C@H]2N(CCCCn3cc(-c4nc5ccccc5s4)nn3)C(=O)O[C@]12C (stereo partly shown) [FSM-10671] | > 32 | > 32 | 32 (≈ 36.6 µM) | 8 (≈ 9.15 µM) | > 32 | > 32 | > 32 | – | – | – | – | – | – | –
CC[C@H]1OC(=O)[C@H](C)C(=O)C[C@@H](O[C@@H]2OC(C)CC(N(C)C)C2O)[C@@](C)(OC)C[C@@H](C)CN(C(C)=O)[C@H](C)[C@H]2N(CCCCn3cc(-c4cccc(N)c4)nn3)C(=O)O[C@]12C (stereo partly shown) [FSM-30512] | > 32 | > 32 | > 32 | > 32 | > 32 | > 32 | > 32 | – | – | – | – | – | – | –
CC[C@H]1OC(=O)[C@H](C)C(=O)[C@H](C)[C@@H](O[C@@H]2OC(C)CC(N(C)C)C2O)[C@](C)(OC)C[C@@H](C)CN(C(C)=O)[C@H](C)[C@H]2N(CCCCn3cc(-c4ccccn4)nn3)C(=O)O[C@]12C (stereo partly shown) [FSM-20766] | 16 (≈ 18.7 µM) | > 32 | 4 (≈ 4.67 µM) | 1 (≈ 1.17 µM) | 32 (≈ 37.4 µM) | > 32 | – | – | – | – | – | – | – | –
CC[C@H]1OC(=O)[C@H](C)C(=O)C[C@@H](O[C@@H]2OC(C)CC(N(C)C)C2O)[C@](C)(OC)C[C@@H](C)CN(C(C)=O)[C@H](C)[C@H]2N(CCCCN=[N+]=[N-])C(=O)O[C@]12C (stereo partly shown) [FSM-10789] | > 32 | > 32 | 4 (≈ 5.41 µM) | 8 (≈ 10.8 µM) | > 32 | > 32 | > 32 | – | – | – | – | – | – | –
CC[C@H]1OC(=O)[C@H](C)C(=O)C[C@@H](O[C@@H]2OC(C)CC(N(C)C)C2O)[C@@](C)(OC)C[C@@H](C)CN[C@H](C)[C@H]2N(CCCCn3cc(-c4nccs4)nn3)C(=O)O[C@]12C (stereo partly shown) [FSM-30501] | > 32 | > 32 | > 32 | > 32 | > 32 | > 32 | > 32 | – | – | – | – | – | – | –
CC[C@H]1OC(=O)[C@H](C)C(=O)C[C@@H](O[C@@H]2OC(C)CC(N(C)C)C2O)[C@](C)(OC)C[C@@H](C)CN(C(C)=O)[C@H](C)[C@H]2N(CCCCn3cc(-c4nccs4)nn3)C(=O)O[C@]12C (stereo partly shown) [FSM-10790] | > 32 | > 32 | 4 (≈ 4.72 µM) | 1 (≈ 1.18 µM) | > 32 | > 32 | > 32 | – | – | – | – | – | – | –
CC[C@H]1OC(=O)[C@H](C)C(=O)C[C@@H](O[C@@H]2OC(C)CC(N(C)C)C2O)[C@](C)(OC)C[C@@H](C)CN(C(C)=O)[C@H](C)[C@H]2N(CCCCn3cc(-c4cccnn4)nn3)C(=O)O[C@]12C (stereo partly shown) [FSM-10794] | > 32 | > 32 | 8 (≈ 9.49 µM) | 16 (≈ 19 µM) | > 32 | > 32 | > 32 | – | – | – | – | – | – | –
CC[C@H]1OC(=O)[C@H](C)C(=O)C[C@@H](O[C@@H]2OC(C)CC(N(C)C)C2O)[C@@](C)(OC)C[C@@H](C)CN(C(C)=O)[C@H](C)[C@H]2N(CCCCn3cc(-c4ccccn4)nn3)C(=O)O[C@]12C (stereo partly shown) [FSM-30515] | > 32 | > 32 | > 32 | > 32 | > 32 | > 32 | > 32 | – | – | – | – | – | – | –
